From US9040545B2, “Heterocyclyl pyrazolopyrimidine analogues as selective JAK inhibitors” (Cellzome Limited, priority 2010, dated 2015)
pIC50: −log10 of the molar value.

Molecular target: T1, JAK3 (Homo sapiens, UniProt P52333)
T1 construct: endogenous in cells; host or cells: mixed Molt4/Ramos lysate (1:2)
T1 sequence (P52333 1-1124): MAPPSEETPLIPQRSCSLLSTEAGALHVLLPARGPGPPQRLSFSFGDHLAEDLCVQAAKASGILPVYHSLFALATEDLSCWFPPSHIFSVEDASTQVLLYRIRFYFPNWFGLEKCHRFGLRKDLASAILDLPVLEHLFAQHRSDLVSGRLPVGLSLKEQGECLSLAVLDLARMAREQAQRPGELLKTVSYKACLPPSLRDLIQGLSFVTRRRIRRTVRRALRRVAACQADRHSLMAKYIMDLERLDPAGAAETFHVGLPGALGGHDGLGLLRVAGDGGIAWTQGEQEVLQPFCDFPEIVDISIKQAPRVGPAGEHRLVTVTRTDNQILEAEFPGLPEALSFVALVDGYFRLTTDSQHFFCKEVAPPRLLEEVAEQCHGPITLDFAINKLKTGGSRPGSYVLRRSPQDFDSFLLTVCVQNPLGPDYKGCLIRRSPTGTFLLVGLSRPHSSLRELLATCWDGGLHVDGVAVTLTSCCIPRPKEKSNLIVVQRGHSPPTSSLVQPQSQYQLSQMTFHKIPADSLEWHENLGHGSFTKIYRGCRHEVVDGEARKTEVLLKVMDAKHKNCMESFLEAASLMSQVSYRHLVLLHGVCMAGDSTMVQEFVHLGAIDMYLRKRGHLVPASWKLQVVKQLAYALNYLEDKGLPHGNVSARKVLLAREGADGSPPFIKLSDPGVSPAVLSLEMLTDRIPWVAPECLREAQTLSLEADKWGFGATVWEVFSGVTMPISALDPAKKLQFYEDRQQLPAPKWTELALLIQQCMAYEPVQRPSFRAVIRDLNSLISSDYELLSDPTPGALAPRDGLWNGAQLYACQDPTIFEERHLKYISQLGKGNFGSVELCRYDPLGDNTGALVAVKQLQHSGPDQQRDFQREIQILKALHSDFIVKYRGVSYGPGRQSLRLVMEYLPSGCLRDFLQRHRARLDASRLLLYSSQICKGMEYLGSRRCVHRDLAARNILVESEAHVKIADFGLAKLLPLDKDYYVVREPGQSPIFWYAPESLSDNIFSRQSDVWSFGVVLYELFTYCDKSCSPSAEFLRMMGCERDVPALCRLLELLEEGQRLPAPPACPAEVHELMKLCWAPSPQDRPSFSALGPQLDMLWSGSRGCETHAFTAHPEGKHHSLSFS
Assay: Kinobeads assay, JAK3
Format: binding
Conditions: mixed Molt4/Ramos lysate, read-out: Inhibition values (IC50) JAK3
Procedure, shortened: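 IC50 values come from dose-response curves of JAK2/JAK3 captured on immobilized aminopyrido-pyrimidine beads, quantified by antibody dot blot with infrared read-out. Compounds (1:3 series, 9 steps, from 5 mM DMSO stock) competed for 3 h in the cold with mixed Molt4/Ramos lysate (1:2, 10 mg/mL protein).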

SMILES | pIC50
Cn1cc(Nc2ncc3cnn(Cc4cc(F)cc(C(=O)N5CCNCC5)c4)c3n2)cn1 [Example 80, (3-Fluoro-5-((6-((1-methyl-1H-pyrazol-4-yl)amino)-1H-pyrazolo[3,4-d]pyrimidin-1-yl)methyl)phenyl)(piperazin-1-yl)methanone] | > 7.00
Fc1cc(N2CCOCC2)c(F)c(Cn2ncc3cnc(Nc4cn[nH]c4)nc32)c1F [Example 81, N-(1H-Pyrazol-4-yl)-1-(2,3,6-trifluoro-5-morpholinobenzyl)-1H-pyrazolo[3,4-d]pyrimidin-6-amine] | > 7.00
OCCn1cc(Nc2ncc3cnn(Cc4c(F)ccc(N5CCOCC5)c4F)c3n2)cn1 [Example 82, 2-(4-((1-(2,6-Difluoro-3-morpholinobenzyl)-1H-pyrazolo[3,4-d]pyrimidin-6-yl)amino)-1H-pyrazol-1-yl)ethanol] | > 7.00
OCCn1cc(Nc2ncc3cnn(Cc4cccc(N5CCNCC5)c4F)c3n2)cn1 [Example 83, 2-(4-((1-(2-Fluoro-3-(piperazin-1-yl)benzyl)-1H-pyrazolo[3,4-d]pyrimidin-6-yl)amino)-1H-pyrazol-1-yl)ethanol] | > 7.00
O=C1COCCN1c1cc(F)cc(Cn2ncc3cnc(Nc4cn[nH]c4)nc32)c1 [Example 84, 4-(3-((6-((1H-Pyrazol-4-yl)amino)-1H-pyrazolo[3,4-d]pyrimidin-1-yl)methyl)-5-fluorophenyl)morpholin-3-one] | > 7.00
O=C(c1cccc(Cn2ncc3cnc(Nc4cnn(CCO)c4)nc32)c1F)N1CCOCC1 [Example 85, (2-Fluoro-3-((6-((1-(2-hydroxyethyl)-1H-pyrazol-4-yl)amino)-1H-pyrazolo[3,4-d]pyrimidin-1-yl)methyl)phenyl)(morpholino)methanone] | > 7.00
Cn1cc(Nc2ncc3cnn(Cc4cc(N5CCNCC5)cc(F)c4F)c3n2)cn1 [Example 86, 1-(2,3-Difluoro-5-(piperazin-1-yl)benzyl)-N-(1-methyl-1H-pyrazol-4-yl)-1H-pyrazolo[3,4-d]pyrimidin-6-amine] | > 7.00
Cn1cc(Nc2ncc3cnn(Cc4cccc(C(=O)N5CCOCC5)c4F)c3n2)cn1 [Example 87, (2-Fluoro-3-((6-((1-methyl-1H-pyrazol-4-yl)amino)-1H-pyrazolo[3,4-d]pyrimidin-1-yl)methyl)phenyl)(morpholino)methanone] | > 7.00
Cn1cc(Nc2ncc3cnn(Cc4cccc(N5CCOCC5O)c4)c3n2)cn1 (stereo not drawn) [Example 88, 4-(3-((6-((1-Methyl-1H-pyrazol-4-yl)amino)-1H-pyrazolo[3,4-d]pyrimidin-1-yl)methyl)phenyl)morpholin-3-ol] | 6.00 to 7.00
